The record followed here is patent US12172989B2, “Histone acetyltransferase (HAT) inhibitor and use thereof” (SHANGHAI INSTITUTE OF MATERIA MEDICA, CHINESE ACADEMY OF …, priority 2018, dated 2024).

The structures appear in SMILES notation.

As a reminder, the IC50 is the concentration needed to halve the response being measured.

In this assay the target is T1, histone acetyltransferase p300 (Homo sapiens, UniProt Q09472).
T1 construct: purchased BPS Corporation 50071
T1 sequence (Q09472 1284-1673 limits assumed): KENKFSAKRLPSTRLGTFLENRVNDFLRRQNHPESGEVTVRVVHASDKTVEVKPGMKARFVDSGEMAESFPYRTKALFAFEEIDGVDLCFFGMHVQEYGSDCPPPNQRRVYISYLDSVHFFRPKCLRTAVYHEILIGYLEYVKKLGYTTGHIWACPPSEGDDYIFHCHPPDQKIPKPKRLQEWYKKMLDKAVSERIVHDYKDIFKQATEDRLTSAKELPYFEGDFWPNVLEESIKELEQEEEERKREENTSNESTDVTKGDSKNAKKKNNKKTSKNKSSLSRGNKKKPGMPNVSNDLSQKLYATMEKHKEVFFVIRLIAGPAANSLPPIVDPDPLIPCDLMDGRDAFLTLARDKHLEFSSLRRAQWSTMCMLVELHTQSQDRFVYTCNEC
As to the kind of experiment: Histone acetyltransferase (p300) activity assay (radioisotope, [3H]-Ac-CoA). The note with it: p300 0.05 nM; histone peptide 600 nM, [3H]-Ac-CoA 250 nM; 60 min at room temperature; read-out: Inhibition rate IC50. The class given is biochemical. How it is done: The reaction was finally terminated with Ac-CoA (Sigma, Cat. No. A2056) without isotope labeling. If the activity of the acetyltransferase p300 was inhibited, the isotope signal cannot be detected on the substrate polypeptide. Therefore, the inhibitory activity of the compound against the acetyltransferase p300 was evaluated.
In the enzyme reaction system, 200 nL of a diluted compound (100% DMSO) was first transferred to a test plate using Echo, where the final concentration of the compound in the enzyme reaction system ranges from 0.25 to 5000 nM. Then 10 μL/well of p300 protein (final concentration of 0.05 nM) was transferred therein, and incubated with the compound for 15 min at room temperature. Then 10 μL/well of a substrate mixture (final concentrations of histone peptide and [^3H]—Ac-CoA were 600 nM and 250 nM, respectively) was added to start the enzyme-catalyzed reaction, and incubated at room temperature for 60 min. Then 10 µL/well of a 250 μM cold Ac-CoA solution was added to stop the reaction. Finally 25 μL/well of the reaction solution was transferred to a 384-well Flashplate (Perkin Elmer, Cat. No. SMP410A001PK), and incubated at room temperature for 1 h. The resultant was washed with double distilled water+0.1% Tween-20 three times. The signal value was read by using Microbeta. The data was analyzed by using GraphPad Prism 5.0 software to obtain IC50.
As to `CNC(=O)Nc1ccc2c(c1)CC[C@]21OC(=O)N(CC(=O)N2Cc3ccccc3CC[C@@H]2C2CC2)C1=O` [SYY-B017-1], the IC50 turned out to be 640 nM.

In the case of `CNC(=O)Nc1ccc2c(c1)CC[C@@]21OC(=O)N(CC(=O)N2Cc3ccccc3CC[C@@H]2C2CC2)C1=O` [SYY-B017-2], the IC50 was found to be 270 nM.

For the compound `CNC(=O)Nc1ccc2c(c1)CC[C@]21OC(=O)N(CC(=O)N2Cc3ccccc3CC[C@@H]2C(C)C)C1=O` [SYY-B020-1], the IC50 was 200 nM.

As for `CNC(=O)Nc1ccc2c(c1)CC[C@@]21OC(=O)N(CC(=O)N2Cc3ccccc3CC[C@@H]2C(C)C)C1=O` [SYY-B020-2], the IC50 came to 45 nM.

As to `CNC(=O)Nc1ccc2c(c1)CC[C@]21OC(=O)N(CC(=O)N2Cc3ccc(F)cc3CC[C@@H]2C)C1=O` [SYY-B022-1], the half-inhibitory concentration (IC50) is 54 nM.

For the compound `CNC(=O)Nc1ccc2c(c1)CC[C@@]21OC(=O)N(CC(=O)N2Cc3ccc(F)cc3CC[C@@H]2C)C1=O` [SYY-B022-2], the IC50 was found to be 12 nM.

`CCC[C@H]1CCc2ccccc2CN1C(=O)CN1C(=O)O[C@]2(CCc3cc(NC(=O)NC)ccc32)C1=O` [SYY-B024-1]: the IC50 was found to be 47 nM.

On to `CNC(=O)Nc1ccc2c(c1)CC[C@]21OC(=O)N(CC(=O)N2Cc3ccc(F)cc3CC[C@@H]2C2CC2)C1=O` [SYY-B026-1], for which the IC50 was 22 nM.

Turning to `CNC(=O)Nc1ccc2c(c1)CC[C@]21OC(=O)N(CC(=O)N2Cc3ccccc3CC[C@@H]2C(F)(F)F)C1=O` [SYY-B028-1], the IC50 came to 1100 nM.

Turning to `CNC(=O)Nc1ccc2c(c1)CC[C@@]21OC(=O)N(CC(=O)N2Cc3ccccc3CC[C@@H]2C(F)(F)F)C1=O` [SYY-B028-2], the IC50 came out at 55 nM.

In the case of `CNC(=O)Nc1ccc2c(c1)CC[C@]21OC(=O)N(CC(=O)N2Cc3cc(F)ccc3OC[C@@H]2C2CC2)C1=O` [SYY-B030-1], the IC50 was 230 nM.

For `CNC(=O)Nc1ccc2c(c1)CC[C@@]21OC(=O)N(CC(=O)N2Cc3cc(F)ccc3OC[C@@H]2C2CC2)C1=O` [SYY-B030-2], the IC50 stood at 230 nM.

Turning to `CNC(=O)Nc1ccc2c(c1)CC[C@@]21OC(=O)N(CC(=O)N2Cc3ccc(F)cc3CC[C@@H]2C(F)(F)F)C1=O` [SYY-B032-2], the IC50 was 37 nM.

For the compound `CNC(=O)Nc1ccc2c(c1)CCC21NC(=O)N(CC(=O)N2Cc3ccc(F)cc3CC[C@@H]2C2CC2)C1=O` (stereo partly drawn) [SYY-B034], the IC50 is over 100 nM.

On to `NC1(C(=O)Nc2ccc3c(c2)CC[C@]32OC(=O)N(CC(=O)N3Cc4ccc(F)cc4CC[C@@H]3C3CC3)C2=O)CC1` [SYY-B036-1], for which the IC50 stood at 180 nM.

As to `NC1(C(=O)Nc2ccc3c(c2)CC[C@@]32OC(=O)N(CC(=O)N3Cc4ccc(F)cc4CC[C@@H]3C3CC3)C2=O)CC1` [SYY-B036-2], the IC50 is 1500 nM.

For `CC(C)(N)C(=O)Nc1ccc2c(c1)CC[C@]21OC(=O)N(CC(=O)N2Cc3ccc(F)cc3CC[C@@H]2C2CC2)C1=O` [SYY-B037-2], the half-inhibitory concentration (IC50) was over 100 nM.

For the compound `CC(C)(N)C(=O)Nc1ccc2c(c1)CC[C@@]21OC(=O)N(CC(=O)N2Cc3ccc(F)cc3CC[C@@H]2C2CC2)C1=O` [SYY-B038-2], the IC50 was over 100 nM.

As to `NC1(C(=O)Nc2ccc3c(c2)CC[C@]32OC(=O)N(CC(=O)N3Cc4ccc(F)cc4CC[C@@H]3C3CC3)C2=O)CCC1` [SYY-B040-1], the IC50 was 130 nM.

For `NC1(C(=O)Nc2ccc3c(c2)CC[C@@]32OC(=O)N(CC(=O)N3Cc4ccc(F)cc4CC[C@@H]3C3CC3)C2=O)CCC1` [SYY-B040-2], the IC50 came out at 160 nM.

In the case of `Cn1cc(-c2ccc3c(c2)CCC32NC(=O)N(CC(=O)N3Cc4ccc(F)cc4CC[C@@H]3C3CC3)C2=O)cn1` (stereo partly drawn) [SYY-B044], the IC50 is over 50 nM.

On to `CNC(=O)Cn1cc(-c2ccc3c(c2)CCC32NC(=O)N(CC(=O)N3Cc4ccc(F)cc4CC[C@@H]3C3CC3)C2=O)cn1` (stereo partly drawn) [SYY-B046], for which the IC50 is over 50 nM.

For the compound `CNC(=O)Nc1ccc2c(c1)CC[C@]21OC(=O)N(CC(=O)N2Cc3cc(F)ccc3OC[C@H]2C(F)(F)F)C1=O` [SYY-B057-1], the IC50 worked out at 8.9 nM.

With `CNC(=O)Nc1ccc2c(c1)CC[C@]21OC(=O)N(CC(=O)N2Cc3cccnc3CC[C@H]2C2CC2)C1=O` [SYY-B081-1], the IC50 is under 200 nM.
